# Experimental data reported in patent publication US20150031572A1, “MEANS AND METHODS FOR ASSESSING NEURONAL TOXICITY” (priority 2012, published 2015).
# Counter-ions that a name gives are not always drawn. Marks after values point to notes of the source that are not given here.
# Assay: Plasma metabolite profiling (GC-MS, LC-MS, SPE-LC-MS) of rats dosed once daily over 28 days; treatment ratios versus untreated control
# Type: in vivo, rat
# Protocol: A group of each 5 male and female rats was dosed once daily with the indicated compounds (see Table 10, below for compounds, applied doses and administration details) over 28 days.
# Each dose group in the studies consisted of five rats per sex. Additional groups of each 5 male and female animals served as controls. Before starting the treatment period, animals, which were 62-64 days old when supplied, were acclimatized to the housing and environmental conditions for 7 days. All animals of the animal population were kept under the same constant temperature (20-24±3° C.) and the same constant humidity (30-70%). The animals of the animal population were fed ad libitum. The food to be used was essentially free of chemical or microbial contaminants. Drinking water was also offered ad libitum. Accordingly, the water was free of chemical and microbial contaminants as laid down in the European Drinking Water Directive 98/83/EG. The illumination period was 12 hours light followed by 12 hours darkness (12 hours light, from 6:00 to 18:00, and 12 hours darkness, from 18:00 to 6:00). […] The test substances (compounds) in the Tables 1 to 9 below were dosed and administered as described in the Table 10 above.
# In the morning of day 7, 14, and 28, blood was taken from the retro-orbital venous plexus from fasted anaesthetized animals. From each animal, 1 ml of blood was collected with EDTA as anticoagulant. The samples were centrifuged for generation of plasma. All plasma samples were covered with a N2 atmosphere and then stored at −80° C. until analysis.
# For mass spectrometry-based metabolite profiling analyses plasma samples were extracted and a polar and a non-polar (lipid) fraction was obtained. For GC-MS analysis, the non-polar fraction was treated with methanol under acidic conditions to yield the fatty acid methyl esters. Both fractions were further derivatised with O-methyl-hydroxyamine hydrochloride and pyridine to convert Oxogroups to O-methyloximes and subsequently with a silylating agent before analysis. In LC-MS analysis, both fractions were reconstituted in appropriate solvent mixtures. HPLC was performed by gradient elution on reversed phase separation columns. Mass spectrometric detection which allows target and high sensitivity MRM (Multiple Reaction Monitoring) profiling in parallel to a full screen analysis was applied as described in WO2003073464.
# Steroids and their metabolites were measured by online SPE-LC-MS (Solid phase extraction-LC-MS).
# Following comprehensive analytical validation steps, the data for each analyte were normalized against data from pool samples. These samples were run in parallel through the whole process to account for process variability. The significance of treatment group values specific for sex, treatment duration and metabolite was determined by comparing means of the treated groups to the means of the respective untreated control groups using WELCH-test and quantified with treatment ratios versus control and p-values.
# The identification of the most important biomarkers per toxicity pattern was done by a ranking of the analytes in the tables below. Therefore the metabolic changes in reference treatments of a given pattern (shown in the table) were compared with changes of the same metabolite in other unrelated treatments. […] The maximum absolute value of the respective TVALUE was taken to indicate the most important metabolite for the pattern.
# [1] = plasma, male rats, day 7, high dose, Table 2a
# [2] = plasma, male rats, day 7, high dose, Table 2b
# [3] = plasma, male rats, day 14, high dose, Table 2b
# [4] = plasma, male rats, day 28, high dose, Table 2a
# [5] = plasma, male rats, day 28, high dose, Table 2b
# [6] = plasma, female rats, day 28, high dose, Table 6a
# [7] = plasma, female rats, day 28, high dose, Table 6b
# [8] = plasma, female rats, day 28, high dose, Table 8c
# [9] = plasma, female rats, day 28, high dose, Table 8d
# [10] = plasma, female rats, day 7, high dose, Table 9a
# [11] = plasma, female rats, day 7, high dose, Table 9b
# [12] = plasma, female rats, day 14, high dose, Table 9a
# [13] = plasma, female rats, day 14, high dose, Table 9b
# [14] = plasma, female rats, day 28, high dose, Table 9a
# [15] = plasma, female rats, day 28, high dose, Table 9b
# [16] = plasma, male rats, day 7, high dose, Table 9c
# [17] = plasma, male rats, day 7, high dose, Table 9d
# [18] = plasma, male rats, day 14, high dose, Table 9c
# [19] = plasma, male rats, day 14, high dose, Table 9d
# [20] = plasma, male rats, day 28, high dose, Table 9c
# [21] = plasma, male rats, day 28, high dose, Table 9d
smiles,measurement,setting,value
CC(=O)CCCCn1c(=O)c2c(ncn2C)n(C)c1=O [Pentoxifylline],"Choline plasmalogen No 03, ratio versus control",[1],1.01
same,"Creatine, ratio versus control",[1],0.95
same,"Isoleucine, ratio versus control",[1],0.93
same,"Valine, ratio versus control",[1],0.98*
same,"Adrenaline (Epinephrine), ratio versus control",[2],0.34*
same,"DAG (C18:1,C18:2), ratio versus control",[2],0.51*
same,"Glutamate, ratio versus control",[2],0.74*
same,"Glycerol, polar fraction, ratio versus control",[2],0.73*
same,"Metanephrine, ratio versus control",[2],0.48*
same,"Pyruvate, ratio versus control",[2],0.76*
same,"TAG No 07, ratio versus control",[2],0.46*
same,"Creatine, ratio versus control","plasma, male rats, day 14, high dose, Table 2a",1.36*
same,"Adrenaline (Epinephrine), ratio versus control",[3],1.34
same,"DAG (C18:1,C18:2), ratio versus control",[3],0.88*
same,"Glutamate, ratio versus control",[3],0.84
same,"Glycerol, polar fraction, ratio versus control",[3],0.74*
same,"Metanephrine, ratio versus control",[3],0.61*
same,"Pyruvate, ratio versus control",[3],0.62*
same,"TAG No 07, ratio versus control",[3],0.93
same,"Choline plasmalogen No 03, ratio versus control",[4],1.14*
same,"Creatine, ratio versus control",[4],1.18*
same,"Valine, ratio versus control",[4],1.1*
same,"Adrenaline (Epinephrine), ratio versus control",[5],0.33*
same,"DAG (C18:1,C18:2), ratio versus control",[5],0.72*
same,"Glutamate, ratio versus control",[5],0.79*
same,"Glycerol, polar fraction, ratio versus control",[5],0.8
same,"Metanephrine, ratio versus control",[5],0.63*
same,"Pyruvate, ratio versus control",[5],0.74*
same,"TAG No 07, ratio versus control",[5],0.74*
same,"Choline plasmalogen No 03, ratio versus control","rat, in vivo",1.29*
same,"Valine, ratio versus control","rat, in vivo",1.05*
C=CCN1C[C@H](C(=O)N(CCCN(C)C)C(=O)NCC)C[C@@H]2c3cccc4[nH]cc(c34)C[C@H]21 [Cabergoline],"Isoleucine, ratio versus control",[6],1.14*
same,"4-Hydroxy-3-methoxyphenylglycol (HMPG), ratio versus control",[7],0.79*
same,"14-Methylhexadecanoic acid, ratio versus control",[7],0.74*
same,"16-Methylheptadecanoic acid, ratio versus control",[7],0.28*
same,"17-Methyloctadecanoic acid, ratio versus control",[7],0.3*
same,"Ceramide (d18:1,C24:1), ratio versus control",[7],0.39*
same,"Choline plasmalogen No 03, ratio versus control",[7],0.39*
same,"Homovanillic acid (HVA), ratio versus control",[7],0.41*
same,"Isopalmitic acid (C16:0), ratio versus control",[7],0.36*
same,"Lactate, ratio versus control",[7],0.7*
same,"Myristic acid (C14:0), ratio versus control",[7],0.33*
same,"Phosphatidylcholine (C16:0, C20:4), ratio versus control",[7],0.97
same,"Phosphatidylcholine No 04, ratio versus control",[7],0.34*
same,"Pyruvate, ratio versus control",[7],0.93
same,"3-Methoxytyrosine, ratio versus control","rat, in vivo",1.24*
C#CCN(C)[C@H](C)Cc1ccccc1 [Selegiline hydrochloride],"3-Methoxytyrosine, ratio versus control",[6],1.38*
same,"Isoleucine, ratio versus control",[6],1.18*
same,"4-Hydroxy-3-methoxyphenylglycol (HMPG), ratio versus control",[7],0.3*
same,"14-Methylhexadecanoic acid, ratio versus control",[7],1.04
same,"16-Methylheptadecanoic acid, ratio versus control",[7],0.55*
same,"17-Methyloctadecanoic acid, ratio versus control",[7],0.57*
same,"Ceramide (d18:1,C24:1), ratio versus control",[7],0.48*
same,"Choline plasmalogen No 03, ratio versus control",[7],0.82
same,"Homovanillic acid (HVA), ratio versus control",[7],0.45*
same,"Isopalmitic acid (C16:0), ratio versus control",[7],0.69*
same,"Lactate, ratio versus control",[7],0.72*
same,"Myristic acid (C14:0), ratio versus control",[7],0.97
same,"Phosphatidylcholine (C16:0, C20:4), ratio versus control",[7],0.94*
same,"Phosphatidylcholine No 04, ratio versus control",[7],0.84
same,"Pyruvate, ratio versus control",[7],0.36*
same,"3-Hydroxybutyrate, ratio versus control",[8],1.29 *
same,"Isoleucine, ratio versus control",[8],1.18 *
same,"TAG (C16:0,C18:2), ratio versus control",[8],1.81 *
same,"16-Methylheptadecanoic acid, ratio versus control",[9],0.55 *
same,"17-Methyloctadecanoic acid, ratio versus control",[9],0.57 *
same,"Ceramide (d18:1,C24:1), ratio versus control",[9],0.48 *
same,"Phosphatidylcholine (C16:0, C20:4), ratio versus control",[9],0.94 *
same,"Phosphatidylcholine (C18:0, C20:3), ratio versus control",[9],0.92 *
same,"Pyruvate, ratio versus control",[9],0.36 *
"O=C1CCCC(=O)C1C(=O)c1ccc(C(F)(F)F)cc1[N+](=O)[O-] [NTBC (HPPD-Inhibitor), NTBC]","4-Hydroxyphenylpyruvate, ratio versus control",[10],245.75*
same,"Glycine, ratio versus control",[10],1.2*
same,"Phosphatidylcholine (C18:0,C18:2), ratio versus control",[10],1.03*
same,"Serine, ratio versus control",[10],1.38*
same,"TAG (C16:0,C18:2), ratio versus control",[10],1.62*
same,"TAG (C18:1,C18:2), ratio versus control",[10],2.45*
same,"TAG (C18:2,C18:2), ratio versus control",[10],1.91*
same,"Threonine, ratio versus control",[10],1.43*
same,"Tyrosine, ratio versus control",[10],37.75*
same,"gamma-Linolenic acid (C18:cis[6,9,12]3), ratio versus control",[10],1.34
same,"5-Oxoproline, ratio versus control",[11],0.5*
same,"Glutamine, ratio versus control",[11],0.54*
same,"4-Hydroxyphenylpyruvate, ratio versus control",[12],293.51*
same,"Glycine, ratio versus control",[12],1.33*
same,"Phosphatidylcholine (C18:0,C18:2), ratio versus control",[12],1
same,"Serine, ratio versus control",[12],1.48*
same,"TAG (C16:0,C18:2), ratio versus control",[12],1.37*
same,"TAG (C18:1,C18:2), ratio versus control",[12],2.22*
same,"TAG (C18:2,C18:2), ratio versus control",[12],1.92*
same,"Threonine, ratio versus control",[12],1.82*
same,"Tyrosine, ratio versus control",[12],50.64*
same,"gamma-Linolenic acid (C18:cis[6,9,12]3), ratio versus control",[12],1.61*
same,"5-Oxoproline, ratio versus control",[13],0.55*
same,"Glutamine, ratio versus control",[13],0.46*
same,"4-Hydroxyphenylpyruvate, ratio versus control",[14],276.92*
same,"Glycine, ratio versus control",[14],1.48*
same,"Phosphatidylcholine (C18:0,C18:2), ratio versus control",[14],1.05*
same,"Serine, ratio versus control",[14],1.43*
same,"TAG (C16:0,C18:2), ratio versus control",[14],1.44*
same,"TAG (C18:1,C18:2), ratio versus control",[14],1.51*
same,"TAG (C18:2,C18:2), ratio versus control",[14],1.31*
same,"Threonine, ratio versus control",[14],1.52*
same,"Tyrosine, ratio versus control",[14],38.31*
same,"gamma-Linolenic acid (C18:cis[6,9,12]3), ratio versus control",[14],1.55*
same,"5-Oxoproline, ratio versus control",[15],0.69*
same,"Glutamine, ratio versus control",[15],0.48*
same,"4-Hydroxyphenylpyruvate, ratio versus control",[16],364.14*
same,"Lysine, ratio versus control",[16],1.12
same,"Threonine, ratio versus control",[16],1.36*
same,"Tyrosine, ratio versus control",[16],56.14*
same,"5-Oxoproline, ratio versus control",[17],0.6*
same,"Citrulline, ratio versus control",[17],0.84*
same,"Glutamine, ratio versus control",[17],0.55*
same,"Phenylalanine, ratio versus control",[17],0.78*
same,"4-Hydroxyphenylpyruvate, ratio versus control",[18],435.77*
same,"Lysine, ratio versus control",[18],1.4*
same,"Threonine, ratio versus control",[18],1.51*
same,"Tyrosine, ratio versus control",[18],58.08*
same,"5-Oxoproline, ratio versus control",[19],0.61*
same,"Citrulline, ratio versus control",[19],0.88*
same,"Glutamine, ratio versus control",[19],0.57*
same,"Phenylalanine, ratio versus control",[19],0.77*
same,"4-Hydroxyphenylpyruvate, ratio versus control",[20],366.39*
same,"Lysine, ratio versus control",[20],1.46*
same,"Threonine, ratio versus control",[20],1.54*
same,"Tyrosine, ratio versus control",[20],52.56*
same,"5-Oxoproline, ratio versus control",[21],0.6*
same,"Citrulline, ratio versus control",[21],0.83*
same,"Glutamine, ratio versus control",[21],0.58*
same,"Phenylalanine, ratio versus control",[21],1.02
